In ChEMBL document CHEMBL4354793, “Current and emerging therapeutic targets of alzheimer's disease for the design of multi-target directed ligands” (Medchemcomm, 2019):

Key:
Format in all cases: functional
Mus musculus [1] = experiment: In vivo inhibition of AChE in po dosed mouse brain relative to control
Rattus norvegicus [2] = experiment: In vivo inhibition of AChE in po dosed rat brain relative to control
Oryctolagus cuniculus [3] = experiment: In vivo inhibition of AChE in po dosed rabbit brain relative to control
Mus musculus [4] = experiment: In vivo inhibition of MAO-B in po dosed mouse brain relative to control
Rattus norvegicus [5] = experiment: In vivo inhibition of MAO-B in po dosed rat brain relative to control
Oryctolagus cuniculus [6] = experiment: In vivo inhibition of MAO-B in po dosed rabbit brain relative to control

SMILES: C#CCN[C@@H]1CCc2ccc(OC(=O)N(C)CC)cc21 [LADOSTIGIL]
- inhibition (INH) (Mus musculus [1]): 25 - 40%
- inhibition (INH) (Rattus norvegicus [2]): 25 - 40%
- inhibition (INH) (Oryctolagus cuniculus [3]): 25 - 40%
- inhibition (INH) (Mus musculus [4]): 70 - 90%
- inhibition (INH) (Rattus norvegicus [5]): 70 - 90%
- inhibition (INH) (Oryctolagus cuniculus [6]): 70 - 90%
